Literature values in US6943193B1, “Method for treating sexual dysfunction” (priority 2003, dated 2005).

Test system: erectile dysfunction

For `CCCc1nn(C)c2c(=O)[nH]c(-c3cc(S(=O)(=O)N4CCN(C)CC4)ccc3OCC)nc12` [sildenafil], the efficacy (clinical practice) is listed as ~50% and the success rates (initial reports) is listed as ≤ 85%.
